Source: ChEMBL document CHEMBL4130413, “1-Aryl-1H- and 2-aryl-2H-1,2,3-triazole derivatives blockade P2X7 receptor in vitro and inflammatory response in vivo” (Eur J Med Chem, 2017)

Columns and labels:
[1] = biological target: Cytochrome P450 2C19 (Homo sapiens, UniProt P33261)
Description: Drug metabolism assessed as CYP2C19 (unknown origin)-mediated metabolite formation

[2] = biological target: T1, UDP-glucuronosyltransferase 2B7 (Homo sapiens, UniProt P16662); assay: Drug metabolism assessed as UGT2B7 (unknown origin)-mediated metabolite formation; type: ADME
T1 sequence (P16662 whole entry): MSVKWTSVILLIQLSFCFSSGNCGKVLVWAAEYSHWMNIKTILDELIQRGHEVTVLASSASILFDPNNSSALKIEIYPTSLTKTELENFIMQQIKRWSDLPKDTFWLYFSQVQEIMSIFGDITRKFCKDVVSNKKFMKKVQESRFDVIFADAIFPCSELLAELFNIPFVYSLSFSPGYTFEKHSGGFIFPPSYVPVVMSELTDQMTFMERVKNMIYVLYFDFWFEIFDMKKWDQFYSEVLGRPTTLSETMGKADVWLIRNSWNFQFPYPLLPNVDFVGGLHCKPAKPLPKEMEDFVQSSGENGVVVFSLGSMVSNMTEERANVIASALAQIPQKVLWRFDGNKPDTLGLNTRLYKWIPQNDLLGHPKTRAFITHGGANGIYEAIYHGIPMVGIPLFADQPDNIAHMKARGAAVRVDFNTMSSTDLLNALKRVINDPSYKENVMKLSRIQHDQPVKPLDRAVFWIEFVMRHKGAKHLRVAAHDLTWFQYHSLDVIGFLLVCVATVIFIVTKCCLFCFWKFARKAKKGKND

[3] = biological target: T2, Cytochrome P450 1A2 (Homo sapiens, UniProt P05177)
T2 sequence (P05177 whole entry): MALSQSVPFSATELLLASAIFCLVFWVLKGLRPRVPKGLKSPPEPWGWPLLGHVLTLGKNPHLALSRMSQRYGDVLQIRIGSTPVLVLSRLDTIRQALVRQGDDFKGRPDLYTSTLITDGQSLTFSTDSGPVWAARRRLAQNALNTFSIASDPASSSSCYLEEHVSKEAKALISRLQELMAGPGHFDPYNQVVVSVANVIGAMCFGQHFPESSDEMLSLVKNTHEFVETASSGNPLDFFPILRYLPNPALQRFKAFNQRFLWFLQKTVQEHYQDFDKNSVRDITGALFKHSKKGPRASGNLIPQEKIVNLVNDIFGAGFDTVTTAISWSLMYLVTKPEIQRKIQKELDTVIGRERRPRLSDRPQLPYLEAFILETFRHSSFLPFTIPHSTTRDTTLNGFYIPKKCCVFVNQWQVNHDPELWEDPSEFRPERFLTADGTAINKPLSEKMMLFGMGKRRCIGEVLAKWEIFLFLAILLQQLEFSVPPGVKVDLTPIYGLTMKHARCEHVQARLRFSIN
Description: Drug metabolism assessed as CYP1A2 (unknown origin)-mediated metabolite formation

[4] = biological target: T3, UDP-glucuronosyltransferase 2B15 (Homo sapiens, UniProt P54855); assay: Drug metabolism assessed as UGT2B15 (unknown origin)-mediated metabolite formation; type: ADME
T3 sequence (P54855 whole entry): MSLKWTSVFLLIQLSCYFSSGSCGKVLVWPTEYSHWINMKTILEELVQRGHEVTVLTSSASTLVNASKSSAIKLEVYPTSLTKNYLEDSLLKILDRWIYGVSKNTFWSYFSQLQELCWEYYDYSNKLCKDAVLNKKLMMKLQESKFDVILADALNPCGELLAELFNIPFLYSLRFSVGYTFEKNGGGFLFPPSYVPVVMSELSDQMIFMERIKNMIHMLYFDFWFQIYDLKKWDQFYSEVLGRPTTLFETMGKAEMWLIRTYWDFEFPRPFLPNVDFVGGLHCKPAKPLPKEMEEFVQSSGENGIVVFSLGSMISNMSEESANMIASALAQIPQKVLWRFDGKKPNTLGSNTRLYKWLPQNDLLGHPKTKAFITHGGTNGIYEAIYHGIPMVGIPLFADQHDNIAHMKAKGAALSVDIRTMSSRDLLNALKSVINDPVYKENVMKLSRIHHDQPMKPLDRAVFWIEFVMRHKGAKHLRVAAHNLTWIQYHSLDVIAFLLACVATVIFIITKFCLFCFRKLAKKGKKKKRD

[5] = biological target: Cytochrome P450 2D6 (Homo sapiens, UniProt P10635)
Description: Drug metabolism assessed as CYP2D6 (unknown origin)-mediated metabolite formation

[6] = biological target: T4, UDP-glucuronosyltransferase 1A9 (Homo sapiens, UniProt O60656); assay: Drug metabolism assessed as UGT1A9 (unknown origin)-mediated metabolite formation; type: ADME
T4 sequence (O60656 whole entry): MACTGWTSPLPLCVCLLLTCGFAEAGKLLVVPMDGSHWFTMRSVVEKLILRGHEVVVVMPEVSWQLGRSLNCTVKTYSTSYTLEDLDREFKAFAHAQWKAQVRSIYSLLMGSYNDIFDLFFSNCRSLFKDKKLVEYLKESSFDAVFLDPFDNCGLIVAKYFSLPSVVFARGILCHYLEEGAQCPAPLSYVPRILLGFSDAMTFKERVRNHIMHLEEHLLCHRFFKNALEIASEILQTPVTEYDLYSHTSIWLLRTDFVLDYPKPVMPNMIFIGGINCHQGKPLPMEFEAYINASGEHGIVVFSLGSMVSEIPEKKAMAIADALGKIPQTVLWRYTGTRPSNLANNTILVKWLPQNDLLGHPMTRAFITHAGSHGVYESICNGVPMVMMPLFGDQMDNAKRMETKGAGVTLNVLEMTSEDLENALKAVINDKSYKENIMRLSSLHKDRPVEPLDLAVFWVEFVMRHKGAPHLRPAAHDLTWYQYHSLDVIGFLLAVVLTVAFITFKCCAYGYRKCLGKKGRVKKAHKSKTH

[7] = biological target: T5, UDP-glucuronosyltransferase 1A1 (Homo sapiens, UniProt P22309); assay: Drug metabolism assessed as UGT1A1 (unknown origin)-mediated metabolite formation; type: ADME
T5 sequence (P22309 whole entry): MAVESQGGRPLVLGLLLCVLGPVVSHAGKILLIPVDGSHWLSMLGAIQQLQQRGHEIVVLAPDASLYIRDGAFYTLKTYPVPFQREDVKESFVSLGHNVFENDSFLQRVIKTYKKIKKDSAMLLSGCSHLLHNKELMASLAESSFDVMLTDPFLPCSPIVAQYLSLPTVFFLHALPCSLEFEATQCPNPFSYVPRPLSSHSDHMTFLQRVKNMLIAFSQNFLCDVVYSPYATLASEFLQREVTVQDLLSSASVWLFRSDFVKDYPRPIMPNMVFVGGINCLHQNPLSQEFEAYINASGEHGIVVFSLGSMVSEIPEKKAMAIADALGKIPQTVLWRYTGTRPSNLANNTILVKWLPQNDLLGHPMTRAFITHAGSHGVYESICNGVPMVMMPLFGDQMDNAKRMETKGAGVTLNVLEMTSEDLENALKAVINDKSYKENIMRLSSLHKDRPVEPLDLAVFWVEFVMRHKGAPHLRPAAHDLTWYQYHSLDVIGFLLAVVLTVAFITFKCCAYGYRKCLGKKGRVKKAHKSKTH

Cytochrome P450 2D6, sequence (P10635 whole entry): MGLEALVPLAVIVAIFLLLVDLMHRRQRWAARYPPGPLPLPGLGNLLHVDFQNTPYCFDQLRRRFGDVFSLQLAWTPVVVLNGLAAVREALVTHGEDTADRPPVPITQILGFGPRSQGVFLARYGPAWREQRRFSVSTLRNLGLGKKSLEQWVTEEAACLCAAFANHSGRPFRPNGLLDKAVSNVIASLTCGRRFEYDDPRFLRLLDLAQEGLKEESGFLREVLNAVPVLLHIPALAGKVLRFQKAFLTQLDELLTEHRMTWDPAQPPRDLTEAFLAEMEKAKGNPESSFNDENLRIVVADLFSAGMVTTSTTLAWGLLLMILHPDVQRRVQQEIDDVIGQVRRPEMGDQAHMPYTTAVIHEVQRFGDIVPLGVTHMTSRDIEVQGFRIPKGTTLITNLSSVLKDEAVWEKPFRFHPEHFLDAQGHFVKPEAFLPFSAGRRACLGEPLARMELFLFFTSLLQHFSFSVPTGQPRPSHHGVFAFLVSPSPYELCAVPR
Cytochrome P450 2C19, sequence (P33261 whole entry): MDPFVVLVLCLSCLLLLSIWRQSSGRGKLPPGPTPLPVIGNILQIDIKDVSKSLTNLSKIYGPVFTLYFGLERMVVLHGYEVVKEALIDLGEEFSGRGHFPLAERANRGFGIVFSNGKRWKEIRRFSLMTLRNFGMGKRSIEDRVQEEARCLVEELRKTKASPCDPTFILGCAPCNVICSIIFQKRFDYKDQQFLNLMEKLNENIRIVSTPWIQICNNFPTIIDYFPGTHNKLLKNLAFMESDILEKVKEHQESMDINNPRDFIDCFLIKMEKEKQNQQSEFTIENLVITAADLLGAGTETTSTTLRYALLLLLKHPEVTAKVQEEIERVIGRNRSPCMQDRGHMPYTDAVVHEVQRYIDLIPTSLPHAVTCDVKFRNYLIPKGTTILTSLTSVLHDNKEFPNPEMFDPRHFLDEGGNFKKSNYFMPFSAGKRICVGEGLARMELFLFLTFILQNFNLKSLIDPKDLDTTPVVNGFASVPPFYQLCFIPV

Drug metabolism [1]	Drug metabolism [2]	Drug metabolism [3]	Drug metabolism [4]	Drug metabolism [5]	Drug metabolism [6]	Drug metabolism [7]	SMILES
Metabolite_Notdetected	Metabolite_Detected	Metabolite_Notdetected	Metabolite_Notdetected	Metabolite_Notdetected	Metabolite_Notdetected	Metabolite_Notdetected	O=C(O)Cc1ccccc1Nc1c(Cl)cccc1Cl [DICLOFENAC]
Metabolite_Notdetected	Metabolite_Notdetected	Metabolite_Detected	Metabolite_Notdetected	Metabolite_Notdetected	Metabolite_Notdetected	Metabolite_Notdetected	CCOCc1cn(-c2ccc(Cl)cc2)nn1
Metabolite_Notdetected	Metabolite_Detected	Metabolite_Notdetected	Metabolite_Notdetected	Metabolite_Notdetected	Metabolite_Detected	Metabolite_Notdetected	CC(C)Cc1ccc(C(C)C(=O)O)cc1 (stereo not given) [IBUPROFEN]
–	Metabolite_Detected	–	Metabolite_Notdetected	–	Metabolite_Detected	Metabolite_Detected	COc1ccc2cc([C@H](C)C(=O)O)ccc2c1 [NAPROXEN]
